In publication PMC10364317, “Regulation of indole‐3‐acetic acid biosynthesis and consequences of auxin production deficiency in Serratia plymuthica” (Microbial Biotechnology, 2023):
Entries after “also recorded” stand apart in the source; their conditions may differ. Where two headings read alike, the source gives them in different places.

Columns and labels:
HpaAA153 = HpaAA153 (Serratia plymuthica, UniProt A0A7T2WCJ6); experiment: Isothermal titration calorimetry of HpaAA153 with ligands; type: binding, Serratia plymuthica A153
Protocol: (§1) Measurements were made using a VP‐ITC microcalorimeter (MicroCal, Inc., Northampton, MA) at 10–25°C. HpaAA153 and HpaRA153 were dialyzed into 50 mM Tris, 300 mM NaCl, 10% (v/v) glycerol, 2 mM β‐mercaptoethanol, pH 8.0. Alternatively, TyrRA153 was dialyzed into 5 mM Tris, 5 mM PIPES, 5 mM MES, 150 mM NaCl, 10 mM MgCl2, 10 mM β‐mercaptoethanol, 10% (v/v) glycerol, pH 7.5. Proteins at 5–50 μM were placed into the sample cell and titrated with 3.2–12.8 μL aliquots of 0.5–10 mM ligand solutions made up in the corresponding dialysis buffers. For DNA binding studies, wild‐type and mutant oligonucleotides corresponding to the TyrR box were synthesized and annealed. Briefly, an equimolar mixture of 200 μM of each complementary oligonucleotide was prepared in 10 mM Tris, 50 mM NaCl, 1 mM EDTA, pH 7.5. This mixture was subsequently incubated at 95°C for 5 min, chilled on ice and dialyzed in the same buffer used for TyrRA153 ITC studies. A typical experiment consisted in an injection of 3.2–12.8 μL aliquots of 100 μM DNA into a 5–20 μM protein solution in the absence and presence of TyrR ligands (e.g. 1 mM L‐Trp; 1 mM L‐Phe; 0.1 mM L‐Tyr; 0.5 mM ATP). Protein‐DNA interaction studies were done at 10°C. In all cases, the mean enthalpies measured from the injection of the ligand in the buffer were subtracted from raw titration data before data analysis with the ORIGIN software (MicroCal).

HpaRA153 = experiment: Isothermal titration calorimetry of HpaRA153 with ligands; type: binding, Serratia plymuthica A153
Protocol: as §1

TyrRA153 [1] = biological target: T1, TyrRA153 (Serratia plymuthica, UniProt A0A318P557); experiment: Isothermal titration calorimetry of TyrRA153 with ligands; type: binding, Serratia plymuthica A153; conditions: for competition with L-Tyr for binding at the ATP-dependent site of TyrRA153: 10 mM competitor, 1 mM ATP, titration with 1 mM L-Tyr
Protocol: as §1

ipdc promoter = experiment: β-Galactosidase assay of the ipdc promoter fusion (P ipdc::lacZ; pMAMV302); type: cell-based, Serratia plymuthica A153; conditions: for induction of ipdc gene expression compared to the same medium lacking the ligand: minimal medium with 15 mM glucose, 1 mM ligand, 24 h
Protocol: Expression of the lacZ reporter gene was monitored during growth using 2‐nitrophenyl β‐D‐galactopyranoside (ONPG; Merck) as a substrate, as described previously (Miller, [1972]). The transcriptional fusion assays were carried out using S. plymuthica A153 LacZ (control) or derived mutants.

[2] = set-up: method as in Patten et al., [2013]; conditions: ref Patten et al., [2013]; cited from earlier work
TyrRA153 [3] = biological target: T1, TyrRA153; experiment: Microcalorimetric titrations of TyrRA153 with 26-bp DNA oligomers of the ipdc promoter (TyrR box); type: binding, Serratia plymuthica A153; conditions: wild-type ipdc promoter oligomer; for increase of TyrRA153 DNA binding affinity: saturating ligand concentration
Protocol: as §1

TyrR (TyrRA153) [4] = biological target: T2, TyrR (TyrRA153) (Serratia plymuthica A153, UniProt A0A318P557 1-523); experiment: ITC; no amino acid or ATP; 10 mM MgCl2; ITC: 5 mM Tris, 5 mM PIPES, 5 mM MES, 150 mM NaCl, 10 mM MgCl2, 10 mM beta-mercaptoethanol, 10% glycerol, pH 7.5, 10 C; 100 uM DNA injected into 5-20 uM TyrR; conditions: protein: recombinant; tags: N-terminal His6; chain copies: 2; blunt
T2 sequence: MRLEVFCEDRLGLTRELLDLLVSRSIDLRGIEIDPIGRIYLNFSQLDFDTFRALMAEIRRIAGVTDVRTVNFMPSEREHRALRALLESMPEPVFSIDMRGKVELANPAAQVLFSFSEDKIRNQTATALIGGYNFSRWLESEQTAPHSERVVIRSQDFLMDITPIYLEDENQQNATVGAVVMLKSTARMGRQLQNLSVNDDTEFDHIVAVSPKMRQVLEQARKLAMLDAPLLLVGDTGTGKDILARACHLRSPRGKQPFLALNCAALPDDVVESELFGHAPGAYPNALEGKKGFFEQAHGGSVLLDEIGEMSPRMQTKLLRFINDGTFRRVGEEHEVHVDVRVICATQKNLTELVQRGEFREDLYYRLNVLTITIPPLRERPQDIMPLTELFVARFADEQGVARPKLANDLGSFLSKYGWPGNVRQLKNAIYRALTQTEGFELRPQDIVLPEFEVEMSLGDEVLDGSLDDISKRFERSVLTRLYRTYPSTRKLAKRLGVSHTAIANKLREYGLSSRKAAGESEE

TyrR (TyrRA153) [5] = biological target: T2, TyrR (TyrRA153); experiment: ITC; L-Phe (saturating; e.g. 1 mM); 10 mM MgCl2; ITC: 5 mM Tris, 5 mM PIPES, 5 mM MES, 150 mM NaCl, 10 mM MgCl2, 10 mM beta-mercaptoethanol, 10% glycerol, pH 7.5, 10 C; 100 uM DNA injected into 5-20 uM TyrR; conditions: protein: recombinant; tags: N-terminal His6; chain copies: 2; blunt
TyrR (TyrRA153) [6] = biological target: T2, TyrR (TyrRA153); experiment: ITC; L-Tyr + ATP (saturating; e.g. 0.1 mM L-Tyr, 0.5 mM ATP); 10 mM MgCl2; ITC: 5 mM Tris, 5 mM PIPES, 5 mM MES, 150 mM NaCl, 10 mM MgCl2, 10 mM beta-mercaptoethanol, 10% glycerol, pH 7.5, 10 C; 100 uM DNA injected into 5-20 uM TyrR; conditions: protein: recombinant; tags: N-terminal His6; chain copies: 2; blunt
[7] = ITC, in the presence of ATP, read-out: K D
[8] = ITC, ligand alone (absence of ATP for amino acids)
[9] = ITC, ligand alone (absence of ATP for amino acids), read-out: K D

Sequence of HpaAA153 (A0A7T2WCJ6 entry or part of it): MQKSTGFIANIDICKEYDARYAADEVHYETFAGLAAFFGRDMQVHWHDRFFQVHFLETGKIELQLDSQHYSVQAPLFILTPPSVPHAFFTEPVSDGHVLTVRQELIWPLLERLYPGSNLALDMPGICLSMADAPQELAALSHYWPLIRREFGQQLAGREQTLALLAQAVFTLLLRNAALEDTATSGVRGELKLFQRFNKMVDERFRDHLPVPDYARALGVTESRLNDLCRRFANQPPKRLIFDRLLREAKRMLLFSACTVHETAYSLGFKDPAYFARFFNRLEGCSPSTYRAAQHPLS

For `O=C(O)Cc1c[nH]c2ccccc12` [IAA, Indole‐3‐acetic acid], the “binding to HpaAA153 as determined by isothermal titration calorimetry” value (shortened to “binding to HpaAA153 as determined”) (HpaAA153) was “unable to observe IAA binding”, the “binding to HpaAA153 as determined” value (HpaAA153; listed as Indole-3-acetic acid) was “did not bind” and the “binding to HpaRA153 as determined by isothermal titration calorimetry” value (“binding to HpaRA153 as determined” for short) (HpaRA153) was “unable to observe IAA binding”. For the same molecule, the “binding to HpaRA153 as determined” value (HpaRA153; listed as Indole-3-acetic acid) was “did not bind”, the “binding to TyrRA153 as determined by isothermal titration calorimetry” value (TyrRA153 [1]) was “did not bind” and the “effect of supplementation on ipdc expression” value (ipdc promoter; 0.25 mM and 1 mM, wild-type A153 and ipdc mutant) was “did not result in altered ipdc expression”. The “induction of ipdc gene expression compared to the same medium lacking the ligand” value (ipdc promoter; 30°C) was “No changes in ipdc expression” and the pKa [2] was 4.8.

In the case of `N[C@@H](Cc1ccccc1)C(=O)O` [L‐Phe, L‐Phenylalanine], the “competition with L-Tyr for binding at the ATP-dependent site of TyrRA153” value (TyrRA153 [1]; ITC) is reported as “compete with L‐Tyr for binding”, the ΔH (TyrRA153 [1]; ITC, in the presence of ATP) is reported as -0.2 ± 0.01 kcal/mol and the Kd (TyrRA153 [1]; [7]) is reported as 193 ± 24 µM. For the same molecule, the “K D” value (TyrRA153 [1]; [8]) was “bound; also recorded: Binding ^a”, the ΔH (TyrRA153 [1]; [8]) was “Binding ^a” and the “increase of TyrRA153 DNA binding affinity” value (TyrRA153 [3]) was 2.6 fold. For the same molecule, the “induction of ipdc gene expression compared to the same medium lacking the ligand” value (ipdc promoter; 30°C) was 5.1 fold.

With `O=C(O)Cc1cccc(O)c1` [3-hydroxyphenylacetic acid] the “binding to HpaRA153 as determined” value (HpaRA153) was “did not bind”.

With `O=C(O)Cc1ccc(O)c(O)c1` [3,4HPA, 3,4‐dihydroxyphenylacetic acid] the “binding to HpaAA153 as determined” value (HpaAA153) was “did not bind”, the “binding to HpaRA153 as determined” value (HpaRA153) was “unable to observe the binding” and the “binding to HpaRA153 as determined” value (HpaRA153; listed as 3,4-dihydroxyphenylacetic acid) was “did not bind”.

For `O=C(O)c1ccccc1O` [Salicylic acid], the “binding to HpaAA153 as determined” value (HpaAA153) was “did not bind” and the “binding to HpaRA153 as determined” value (HpaRA153) was “did not bind”.

In the case of `O=C(O)c1ccc(O)cc1` [4‐hydroxybenzoic acid], the Kd (HpaAA153) is reported as 28.5 ± 2 µM, the ΔH (HpaAA153; ITC, One binding site model) is reported as -0.4 ± 0.03 kcal/mol and the “binding to HpaRA153 as determined” value (HpaRA153) is reported as “did not bind”.

For `O=C(O)C(=O)Cc1c[nH]c2ccccc12` [Indole-3-pyruvic acid], the “binding to HpaAA153 as determined” value (HpaAA153) was “did not bind” and the “binding to HpaRA153 as determined” value (HpaRA153) was “did not bind”.

With `O=C(O)Cc1ccccc1` [PAA, phenylacetic acid] the “binding to HpaAA153 as determined” value (HpaAA153) was “did not recognize”, the “binding to HpaAA153 as determined” value (HpaAA153; listed as Phenylacetic acid) was “did not bind” and the “binding to HpaRA153 as determined” value (HpaRA153) was “did not recognize”. For the same molecule, the “binding to HpaRA153 as determined” value (HpaRA153; listed as Phenylacetic acid) was “did not bind”.

For `O=C(O)c1ccccc1` [Benzoic acid], the “binding to HpaAA153 as determined” value (HpaAA153) was “did not bind” and the “binding to HpaRA153 as determined” value (HpaRA153) was “did not bind”.

For `N[C@@H](Cc1ccc(O)cc1)C(=O)O` [L‐Tyr, L‐Tyrosine], the ΔH (TyrRA153 [1]; ITC, in the presence of ATP) was -6.8 ± 0.1 kcal/mol, the Kd (TyrRA153 [1]; [7]) was 6 ± 0.2 µM and the “K D” value (TyrRA153 [1]; [8]) was “No binding”. For the same molecule, the ΔH (TyrRA153 [1]; [8]) was “No binding”, the “increase of TyrRA153 DNA binding affinity” value (TyrRA153 [3]) was 2.4 fold and the “induction of ipdc gene expression compared to the same medium lacking the ligand” value (ipdc promoter; 30°C) was 11.0 fold.

With `O=C(O)Cc1ccc(O)cc1` [4HPA, 4‐hydroxyphenylacetic acid] the Kd (HpaAA153) was 28.5 µM and the “binding to HpaRA153 as determined” value (HpaRA153) was “unable to observe the binding”.

For `N[C@@H](Cc1c[nH]c2ccccc12)C(=O)O` [L‐Trp, L‐Tryptophan], the “competition with L-Tyr for binding at the ATP-dependent site of TyrRA153” value (TyrRA153 [1]; ITC) was “compete with L‐Tyr for binding”, the “ΔH 1” value (TyrRA153 [1]; ITC, in the presence of ATP) was -1.8 ± 0.3 kcal/mol and the “ΔH 2” value (TyrRA153 [1]; ITC, in the presence of ATP) was -7.9 ± 1.7 kcal/mol. For the same molecule, the Kd (TyrRA153 [1]; ITC, in the presence of ATP, read-out: K D1) was 1640 µM, the Kd (TyrRA153 [1]; ITC, in the presence of ATP, read-out: K D2) was 2060 µM and the “K D” value (TyrRA153 [1]; [8]) was “bound”. For the same molecule, the ΔH (TyrRA153 [1]; [8]) was -1.6 ± 0.5 kcal/mol, the Kd (TyrRA153 [1]; [9]) was 2680 ± 670 µM and the “reduction of TyrRA153 DNA affinity” value (TyrRA153 [3]; presence of ligand) was 2.3 fold. For the same molecule, the “effect of supplementation on ipdc transcription” value (ipdc promoter; LB medium, different concentrations, 30°C) was “did not result in increased ipdc transcription” and the “induction of ipdc gene expression compared to the same medium lacking the ligand” value (ipdc promoter; 30°C) was “no changes in ipdc expression”.

With `Cc1cccc(C(=O)O)c1` [3-methylbenzoic acid] the “binding to HpaAA153 as determined” value (HpaAA153) was “did not bind” and the “binding to HpaRA153 as determined” value (HpaRA153) was “did not bind”.

With `Nc1ncnc2c1ncn2[C@@H]1O[C@H](COP(=O)(O)OP(=O)(O)OP(=O)(O)O)[C@@H](O)[C@H]1O` [ATP] the ΔH (TyrRA153 [1]; [8]) was -22.9 ± 1.5 kcal/mol and the Kd (TyrRA153 [1]; [9]) was 16 ± 0.7 µM.

B1: Pipdc-wt-ITC (wild-type TyrR box) (dsDNA)
DNA 1: CCCCTGTAAAGGAGCCATTACATCAA
DNA 2: TTGATGTAATGGCTCCTTTACAGGGG
In the case of B1, the Kd (TyrR (TyrRA153) [4]) is reported as 0.193 ± 0.02 µM, the Kd (TyrR (TyrRA153) [5]) is reported as 0.074 ± 0.01 µM and the Kd (TyrR (TyrRA153) [6]) is reported as 0.081 ± 0.01 µM.

B2: Pipdc-mut-ITC (mutant TyrR box) (dsDNA)
DNA 1: CCCCGACGTGGGAGCCGCCGTGTCAA
DNA 2: TTGACACGGCGGCTCCCACGTCGGGG
B2: no binding (TyrR (TyrRA153) [4]).
